Source: patent publication US11078496B2, “System for F-box hormone receptor regulated protein expression in mammalian cells” (ICAHN SCHOOL OF MEDICINE AT MOUNT SINAI, priority 2016, dated 2021)

System: J-p53 (OsJAZ^33-p53)
Assay: Coronatine-dependent degradation of J-p53 in H9 hESCs (western blot quantification)
Format: cell-based, human
Details: 50 μM coronatine, 1 day
Experimental: FIGS. 11A-11G illustrate a coronatine-induced degradation rescue system. […] GFP fluorescence was measured by flow cytometry and % degradation was calculated. The corresponding components and biological replicate number (n) are indicated. The bar for pJAZ 6-Os23 is in grey color, to indicate reduced GFP fluorescence in non-treated cells (FIG. 10F). […] GFP fluorescence was measured using flow cytometry. The experiment was repeated three times, and representative results are presented. In FIGS. 11C-11D, H9 hESCs were infected with pJAZ NLS-GFP-OsJAZ^33 (“GFP-J”) or pJAZ OsJAZ^33-p^53 (“J-p53”) that harbors an shRNA targeting the 3′-UTR of p53 and an OsJAZ^33degron-fused p53 coding sequence lacking UTRs. […] P-values were calculated using unpaired Student's t-test. […] After 24 hours, microscopic bright-field (“BF”) and fluorescence images were taken (FIG. 11E, scale bars, 100 μm) and cells were subjected to flow analysis (FIG. 11F, contour plots; FIG. 11G, quantification, error bars represent standard deviation.). […]
Cells were lysed in RIPA-B buffer (20 mM Na2HPO4 pH 7.4, 150 mM NaCl and 1% Triton X-100) supplemented with Protease Inhibitor Cocktail (Roche) for 30 minutes on ice with occasional vortexing, followed by 30 minutes centrifugation at 13,000 relative centrifugal force at 4° C. […] Luminescence was detected with X-ray films, which were scanned, or using the Bio-Rad ChemiDoc MP System. […]

## CC[C@H]1C=C(C(=O)N[C@@]2(C(=O)O)C[C@@H]2CC)[C@H]2CCC(=O)[C@H]2C1 [coronatine, Coronatine]
  coronatine-dependent degradation of J-p53: 90%
